Measurements reported in PubChem BioAssay (NCI).
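Five concentrations, 48 hours, 96-well plates. TGI denotes the concentration required for complete inhibition of growth.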

Columns and labels:
Assay in all cases: NCI-60 cell line screen, 48 h
[1] = system: NCI-H23 lung
[2] = system: 786-0 renal
[3] = system: HT29 colon
[4] = system: A498 renal
[5] = system: BT-549 breast
[6] = system: IGROV1 ovarian
[7] = system: K-562 leukemia
[8] = system: HOP-92 NSCLC
[9] = system: T-47D breast
[10] = system: CCRF-CEM leukemia
[11] = system: MALME-3M melanoma
[12] = system: NCI-H460 lung
[13] = system: NCI-H226 lung
[14] = system: SNB-75 CNS
[15] = system: NCI-H522 lung
[16] = system: OVCAR-5 ovarian
[17] = system: PC-3 prostate
[18] = system: RPMI-8226 leukemia
[19] = system: SK-OV-3 ovarian
[20] = system: TK-10 renal
[21] = system: COLO 205 colon
[22] = system: UACC-62 melanoma
[23] = system: EKVX NSCLC
[24] = system: SF-539 CNS
[25] = system: SK-MEL-2 melanoma
[26] = system: SF-295 CNS
[27] = system: MDA-N
[28] = system: M14 melanoma
[29] = system: MDA-MB-231 breast
[30] = system: HCT-116 colon
[31] = system: MCF7 breast
[32] = system: SR leukemia
[33] = system: RXF 393 renal
[34] = system: NCI/ADR-RES ovarian
[35] = system: A549 NSCLC
[36] = system: SW-620 colon
[37] = system: SF-268 CNS
[38] = system: MDA-MB-435
[39] = system: SN12C renal
[40] = system: LOX IMVI melanoma
[41] = system: OVCAR-4 ovarian
[42] = system: HCT-15 colon
[43] = system: UO-31 renal
[44] = system: U251 CNS
[45] = system: HS 578T breast
[46] = system: HCC-2998 colon
[47] = system: SK-MEL-5 melanoma
[48] = system: DU-145 prostate
[49] = system: UACC-257 melanoma
[50] = system: SNB-19 CNS
[51] = system: OVCAR-8 ovarian
[52] = system: KM12 colon
[53] = system: MOLT-4 leukemia
[54] = system: ACHN renal
[55] = system: SK-MEL-28 melanoma
[56] = system: HOP-62 NSCLC
[57] = system: OVCAR-3 ovarian
[58] = system: CAKI-1 renal
[59] = system: HL-60(TB) leukemia
[60] = system: SNB-78 CNS
[61] = system: XF 498 CNS
[62] = system: LXFL 529 NSCLC
[63] = system: DLD-1 colon
[64] = system: M19-MEL melanoma
[65] = system: DMS 273 small cell lung
[66] = system: DMS 114 small cell lung
[67] = system: KM20L2 colon

Oc1c(CN2CCCC2)ccc2cccnc12
TGI [1]: 99.6 µM | TGI [2]: > 100 µM | TGI [3]: > 69 µM | TGI [4]: > 70.3 µM | TGI [5]: > 100 µM | TGI [6]: > 84.5 µM | TGI [7]: > 100 µM | TGI [8]: > 100 µM | TGI [9]: > 100 µM | TGI [10]: > 73.6 µM | TGI [11]: > 100 µM | TGI [12]: > 84.6 µM | TGI [13]: > 64 µM | TGI [14]: > 100 µM | TGI [15]: > 100 µM | TGI [16]: > 100 µM | TGI [17]: > 100 µM | TGI [18]: 48.2 µM | TGI [19]: > 96.2 µM | TGI [20]: 88.7 µM | TGI [21]: 71.5 µM | TGI [22]: > 100 µM | TGI [23]: > 100 µM | TGI [24]: > 78.5 µM | TGI [25]: > 95.6 µM | TGI [26]: > 100 µM | TGI [27]: > 100 µM | TGI [28]: 80.7 µM | TGI [29]: > 100 µM | TGI [30]: > 100 µM | TGI [31]: > 100 µM | TGI [32]: > 100 µM | TGI [33]: > 100 µM | TGI [34]: 8.23 µM | TGI [35]: > 100 µM | TGI [36]: > 100 µM | TGI [37]: > 100 µM | TGI [38]: > 100 µM | TGI [39]: > 83.5 µM | TGI [40]: 60.5 µM | TGI [41]: > 100 µM | TGI [42]: > 41.2 µM | TGI [43]: 14.1 µM | TGI [44]: > 100 µM | TGI [45]: > 100 µM | TGI [46]: > 100 µM | TGI [47]: > 67.7 µM | TGI [48]: > 100 µM | TGI [49]: > 100 µM | TGI [50]: > 31.6 µM | TGI [51]: 32.4 µM | TGI [52]: > 100 µM | TGI [53]: > 100 µM | TGI [54]: 59.5 µM | TGI [55]: > 100 µM | TGI [56]: > 65.8 µM | TGI [57]: > 82.7 µM | TGI [58]: 60.8 µM | TGI [59]: > 53.9 µM

Cc1[nH]c(=O)nc(N/N=C/c2ccc(O)cc2)c1C(=O)Nc1ccc(O)cc1
TGI [1]: > 100 µM | TGI [2]: > 100 µM | TGI [4]: > 100 µM | TGI [6]: > 100 µM | TGI [7]: > 100 µM | TGI [8]: > 100 µM | TGI [10]: > 100 µM | TGI [11]: > 100 µM | TGI [12]: > 100 µM | TGI [13]: > 100 µM | TGI [14]: > 100 µM | TGI [15]: > 100 µM | TGI [60]: > 100 µM | TGI [18]: > 100 µM | TGI [19]: > 100 µM | TGI [21]: > 100 µM | TGI [22]: > 100 µM | TGI [24]: > 100 µM | TGI [25]: > 100 µM | TGI [61]: > 100 µM | TGI [28]: > 100 µM | TGI [62]: > 100 µM | TGI [30]: > 100 µM | TGI [63]: > 100 µM | TGI [32]: > 100 µM | TGI [64]: > 100 µM | TGI [37]: > 100 µM | TGI [65]: > 100 µM | TGI [39]: > 100 µM | TGI [41]: > 100 µM | TGI [43]: > 100 µM | TGI [46]: > 100 µM | TGI [66]: > 100 µM | TGI [53]: > 100 µM | TGI [55]: > 100 µM | TGI [56]: > 100 µM | TGI [58]: > 100 µM | TGI [59]: > 100 µM

CC1=NN(C(=O)Cc2ccccc2)C(=O)/C1=C\c1ccc([N+](=O)[O-])cc1
TGI [1]: > 100 µM | TGI [2]: > 100 µM | TGI [3]: > 100 µM | TGI [4]: > 100 µM | TGI [6]: > 100 µM | TGI [7]: > 100 µM | TGI [8]: 9.82 µM | TGI [10]: > 100 µM | TGI [11]: > 100 µM | TGI [12]: > 100 µM | TGI [13]: > 100 µM | TGI [15]: > 100 µM | TGI [16]: > 100 µM | TGI [60]: > 100 µM | TGI [18]: > 100 µM | TGI [19]: > 100 µM | TGI [20]: > 100 µM | TGI [21]: > 100 µM | TGI [22]: > 100 µM | TGI [23]: > 100 µM | TGI [24]: > 100 µM | TGI [25]: > 100 µM | TGI [61]: > 100 µM | TGI [26]: > 100 µM | TGI [67]: > 100 µM | TGI [28]: > 100 µM | TGI [62]: > 100 µM | TGI [30]: > 100 µM | TGI [63]: > 100 µM | TGI [64]: > 100 µM | TGI [33]: > 100 µM | TGI [35]: > 100 µM | TGI [36]: > 100 µM | TGI [37]: > 100 µM | TGI [39]: > 100 µM | TGI [40]: > 100 µM | TGI [41]: > 100 µM | TGI [42]: > 100 µM | TGI [43]: > 100 µM | TGI [44]: > 100 µM | TGI [46]: > 100 µM | TGI [47]: > 100 µM | TGI [66]: > 100 µM | TGI [49]: > 100 µM | TGI [50]: > 100 µM | TGI [51]: > 100 µM | TGI [52]: > 100 µM | TGI [53]: > 100 µM | TGI [54]: > 100 µM | TGI [55]: > 100 µM | TGI [56]: > 100 µM | TGI [57]: > 100 µM | TGI [58]: > 100 µM

CCCCCCCCCCNCCSSCc1ccc(Cl)cc1
TGI [2]: 24.2 µM | TGI [3]: 3.74 µM | TGI [4]: 28.4 µM | TGI [6]: 7.62 µM | TGI [7]: 5.27 µM | TGI [10]: 4.87 µM | TGI [11]: 7.69 µM | TGI [14]: 20.6 µM | TGI [15]: 3.18 µM | TGI [16]: 3.72 µM | TGI [19]: 8.22 µM | TGI [20]: 4.04 µM | TGI [21]: 5.95 µM | TGI [23]: 5.14 µM | TGI [24]: 3.64 µM | TGI [61]: 5.22 µM | TGI [26]: 4.79 µM | TGI [67]: 3.07 µM | TGI [28]: 1.17 µM | TGI [62]: 2.9 µM | TGI [30]: 3.14 µM | TGI [64]: 3.58 µM | TGI [33]: 11.6 µM | TGI [35]: 3.59 µM | TGI [36]: 3.02 µM | TGI [65]: 2.99 µM | TGI [39]: 3.86 µM | TGI [41]: 3.09 µM | TGI [42]: 6.54 µM | TGI [43]: 4.84 µM | TGI [44]: 10.2 µM | TGI [47]: 1.88 µM | TGI [66]: 3.23 µM | TGI [49]: 2.31 µM | TGI [51]: 3.8 µM | TGI [53]: 3.08 µM | TGI [54]: 18.5 µM | TGI [58]: 7.15 µM
